This note sets out measurements from ChEMBL document CHEMBL4706707, “Discovery of novel HBV capsid assembly modulators by structure-based virtual screening and bioassays” (Bioorg Med Chem, 2021).

The subject of data set [1] is Hepatitis B virus. The data set can be described thus: Antiviral activity against HBV infected in human HepG2.2.15 cells assessed as inhibition of viral growth measured by reduction in DNA level compound addition at every 3 days for 7 days by qPCR analysis. Type of data set: functional, organism-based.
Data set [2] can be described thus: Cytotoxicity against human HepG2.2.15 cells assessed as reduction in cell viability compound addition at every 3 days for 7 days by MTT assay. In kind it is cell-based, HepG2 2.2.15. To be noted: time 7 day.
Data set [3] deals with Hepatitis B virus. The data set can be described thus: Antiviral activity against HBV infected in human HepG2.2.15 cells assessed as inhibition of viral growth measured by reduction in DNA level at 20 uM compound addition at every 3 days for 7 days by qPCR analysis relative to control. Type of data set: functional. To be noted: HepG2.2.15, 168 h, time 7 day.
Another data set deals with HEK293T. The data set can be described thus: Inhibition of HBV VFP-fused HBV-VN (N1 to 154 residue)/ VFP-fused HBV-VC (C155 to 239 residue) capsid protein assembly in 293T cells assessed as mean flouroscent intensity sat 50 uM by BIFC assay. To be noted: Hepatitis B virus. Type of data set: cell-based.

In general, EC50 refers to the concentration needed to bring the measured effect to its halfway point. What is called CC50 is the concentration at which the toxic effect on the cells reaches its halfway point. Take `O=C(OCc1ccc(Cl)cc1)c1cc(-c2ccccc2)nc2ccccc12`: the 50% effective concentration (EC50) in the data set on Hepatitis B virus [1] was above 20 µM. Further, in data set [2], the cytotoxic concentration (CC50) at 168 h is above 20 µM.
As to `CCOc1cccc(-c2cc(C(=O)N3CCC(Cc4ccccc4)CC3)c3ccccc3n2)c1`, the EC50 in the data set with Hepatitis B virus [1] is 9.8 µM. In addition, the CC50 at 168 h in data set [2] was above 20 µM.
The inhibition is the relative decrease from the control value, in per cent. For `O=C(Nc1ccccc1F)c1ccccc1C(=O)Nc1ccccc1F`, the inhibition at 20 µM in the data set on Hepatitis B virus [3] was determined as 38.5%.
As for `O=C(Nc1cc(Cl)ccc1O)c1cccc(N2C(=O)c3ccccc3C2=O)c1`, in the data set on Hepatitis B virus [3], the inhibition at 20 µM came out at 8.12%.
As to `O=C(c1cc(-c2ccsc2Cl)nc2ccccc12)N1CCC(Cc2ccccc2)CC1`, in the data set with Hepatitis B virus [1], the EC50 came to 6.7 µM. Further, the CC50 at 168 h in data set [2] is above 20 µM.
Consider `COc1cc(OC)c(C(=O)Nc2cccc(S(=O)(=O)N3CCCC3)c2)cc1OC`, for which the inhibition at 20 µM in the data set on Hepatitis B virus [3] was 2.32%.
In the case of `COc1ccc(-c2cc(C(=O)OCc3ccccc3)c3ccccc3n2)cc1`, in the data set on Hepatitis B virus [1], the concentration giving a half-maximal response (EC50) was above 20 µM. The CC50 at 168 h in data set [2] is above 20 µM.
`COc1ccccc1N1CCN(C(=O)c2cc(-c3ccc(C)c(C)c3)nc3ccccc23)CC1`: the EC50 with Hepatitis B virus [1] turned out to be 15.3 µM. Further, the 50% cytotoxic concentration (CC50) at 168 h in data set [2] is above 20 µM.
The matching figures for `CCOc1cccc(-c2cc(C(=O)NCc3nnc(C(C)(C)CC)s3)c3ccccc3n2)c1`: above 20 µM and above 20 µM.
Turning to `CS(=O)(=O)N1CCCc2cc(C(=O)Nc3ccccc3C(=O)NCc3ccccc3)ccc21`, the inhibition at 20 µM in the data set on Hepatitis B virus [3] was found to be 36.6%.
For `Cc1cccc(-c2cc(C(=O)NCc3ccccn3)c3ccccc3n2)c1`, the EC50 in the data set on Hepatitis B virus [1] is above 20 µM. For the same compound, the CC50 at 168 h in data set [2] is above 20 µM.
Consider `Cc1ccc(-c2n[nH]c(SCC(=O)N3c4ccccc4Sc4ccccc43)n2)cc1`, for which, in the data set on Hepatitis B virus [3], the inhibition at 20 µM was determined as 48.7%.
As for `Cc1cccc(-c2cc(C(=O)N3CCC(Cc4ccccc4)CC3)c3ccccc3n2)c1`, the concentration for a half-maximal effect (EC50) in the data set with Hepatitis B virus [1] was 1.8 µM. In data set [2], the 50% cytotoxic concentration (CC50) at 168 h was above 20 µM. In addition, in the data set with HEK293T, the Flu intensity was determined as 0.25.
In the case of `Cc1ccc(-c2cc(C(=O)N3CCN(C/C=C/c4ccccc4)CC3)c3ccccc3n2)cc1C`, the inhibition at 20 µM with Hepatitis B virus [3] was 72.5%. Also, the 50% effective concentration (EC50) in the data set on Hepatitis B virus [1] is 5.6 µM. The 50% cytotoxic concentration (CC50) at 168 h in data set [2] was above 20 µM.
As to `CC(C)Cc1ccc(-c2cc(C(=O)N3CCC(Cc4ccccc4)CC3)c3ccccc3n2)cc1`, the half-maximal effective concentration (EC50) in the data set with Hepatitis B virus [1] was above 20 µM. Also, in data set [2], the 50% cytotoxic concentration (CC50) at 168 h was above 20 µM.
With `O=C(Nc1c(C(=O)N2CCCCCC2)cnn1-c1ccccc1)c1cccc(F)c1`, the inhibition at 20 µM in the data set with Hepatitis B virus [3] came to 13.5%.
`O=C(c1cc(-c2ccccc2)nc2ccccc12)N1CCC(Cc2ccccc2)CC1`: the 50% effective concentration (EC50) in the data set on Hepatitis B virus [1] amounted to 8.7 µM. For the same compound, the CC50 at 168 h in data set [2] was above 20 µM.
The matching figures for `O=C(c1cc(-c2ccsc2Cl)nc2ccccc12)N1CCN(C/C=C/c2ccccc2)CC1`: 11.9 µM and above 20 µM.
On to `O=C(c1cc(-c2cccc(Br)c2)nc2ccccc12)N1CCC(Cc2ccccc2)CC1`, for which the EC50 in the data set with Hepatitis B virus [1] is above 20 µM. Moreover, the cytotoxic concentration (CC50) at 168 h in data set [2] was above 20 µM.
With `Cc1ccc(CN2C(=N)C(C(=O)NCc3cccnc3)=CC3C(=O)N4C=CC=CC4=NC32)cc1` (centres undefined), in the data set with Hepatitis B virus [3], the inhibition at 20 µM is 54.5%.
As for `Cc1ccc([C@H](C)NC(=O)c2cc(-c3cccc(C)c3)nc3ccccc23)cc1`, the concentration for a half-maximal effect (EC50) in the data set on Hepatitis B virus [1] was above 20 µM. Further, the CC50 at 168 h in data set [2] was above 20 µM.
With `O=C(NCc1ccc(Cl)cc1)c1cc(-c2ccccc2)nc2ccccc12`, in the data set with Hepatitis B virus [1], the half-maximal effective concentration (EC50) was found to be 15.7 µM. In addition, in data set [2], the 50% cytotoxic concentration (CC50) at 168 h was above 20 µM.
Regarding `O=C(Nc1ccccc1N1CCN(C(=O)c2ccccc2)CC1)C(c1ccccc1)c1ccccc1`, in the data set with Hepatitis B virus [3], the inhibition at 20 µM came out at 12.2%.
Same read-out and setting: next, `N#CC1=C(N)N(c2nc[nH]n2)C2=C(C(=O)C[C@@H](c3ccccc3)C2)[C@H]1c1cccnc1`: 33%; `CCCc1nc2ccccc2n1Cc1nc2ccccc2n1CCO`: 8.1%.
In the case of `CCOC(=O)C1=C(CN2CCOCC2)NC(c2nccs2)=N[C@H]1c1ccc(F)cc1Br`, the Flu intensity in the data set with HEK293T came out at 0.41.
In the case of `Cn1c(=O)[nH]c(=O)c2c1nc(SCc1ccc(Cl)cc1)n2CCCc1ccccc1`, in the data set on Hepatitis B virus [3], the inhibition at 20 µM was determined as 64.8%.
The same measure, in the same setting: then `Cc1ccc(C(=O)COC(=O)c2ccccc2NC(=O)Cc2ccccc2)cc1`, with 45.9%.
For the compound `Cc1ccc(-c2cc(C(=O)N3CCC(Cc4ccccc4)CC3)c3ccccc3n2)cc1`, the EC50 in the data set with Hepatitis B virus [1] turned out to be 11.7 µM. Further, the CC50 at 168 h in data set [2] was above 20 µM.
The matching figures for `O=C(c1cc(-c2ccsc2Cl)nc2ccccc12)N1CCN(Cc2ccccc2)CC1`: 8.3 µM and above 20 µM.
Regarding `CCN(C(=O)Cn1c([C@@H]2CC(=O)N(c3ccccc3C)C2)nc2ccccc21)c1ccccc1`, the inhibition at 20 µM in the data set with Hepatitis B virus [3] was -8.36%.
Take `Cc1ccc(-c2cc(C(=O)N3CCN(Cc4ccccc4)CC3)c3ccccc3n2)cc1`: the EC50 in the data set on Hepatitis B virus [1] was 14.5 µM. In addition, in data set [2], the 50% cytotoxic concentration (CC50) at 168 h was above 20 µM.
Consider `O=C(CN1C(=O)c2ccccc2C1=O)Nc1ccccc1C(=O)N(Cc1ccccc1)Cc1ccccc1`, for which, in the data set on Hepatitis B virus [3], the inhibition at 20 µM turned out to be 23.3%.
The same measure, in the same setting: then `O=C(CCCCC(=O)Nc1ccccc1C(=O)Nc1cccc(Cl)c1)Nc1ccccc1C(=O)Nc1cccc(Cl)c1`, with 30.1%.
